Legend:
hTGR5 = molecular target: T1, hTGR5 (Homo sapiens, UniProt Q8TDU6); assay: TGR5/CRE Luciferase Assay (hTGR5); format: cell-based; details: for EC50: HEK 293 cells co-transfected with pCMV tag4b-TGR5h and pCRE TA-Luciferase, overnight incubation; for hTGR5 % trans: percentage of the 10 μM LCA value, HEK 293 cells transfected with hTGR5
T1 construct: expressed in transfected cells; host or cells: HEK293 cells, transiently co-transfected with the pCRE TA-Luciferase reporter
T1 sequence (Q8TDU6 1-330): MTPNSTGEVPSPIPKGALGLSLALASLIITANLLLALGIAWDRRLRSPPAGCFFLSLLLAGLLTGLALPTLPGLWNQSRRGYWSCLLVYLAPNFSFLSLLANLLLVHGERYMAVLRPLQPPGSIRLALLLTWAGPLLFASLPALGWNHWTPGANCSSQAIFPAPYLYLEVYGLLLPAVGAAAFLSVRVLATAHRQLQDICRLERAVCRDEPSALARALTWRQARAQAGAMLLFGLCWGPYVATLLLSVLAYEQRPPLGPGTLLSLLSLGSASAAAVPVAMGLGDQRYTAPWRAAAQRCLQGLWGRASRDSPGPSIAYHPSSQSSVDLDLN
In short: (§1)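 cAMP-dependent luciferase luminescence was measured after overnight compound exposure (duplicate concentration series) and fitted to a four-parameter logistic equation. Cells: HEK293 transiently co-expressing hTGR5 or mTGR5 with a CRE reporter; lithocholic acid at 10 μM was the reference agonist.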

mTGR5 = molecular target: T2, mTGR5 (Mus musculus, UniProt Q80SS6); assay: TGR5/CRE Luciferase Assay (mTGR5); format: cell-based; details: for EC50: HEK 293 cells co-transfected with pCMV AC6-TGR5m and pCRE TA-Luciferase, overnight incubation; for mTGR5 % trans: percentage of the 10 μM LCA value, HEK 293 cells transfected with mTGR5
T2 construct: expressed in transfected cells; host or cells: HEK293 cells, transiently co-transfected with the pCRE TA-Luciferase reporter
T2 sequence (Q80SS6 1-329): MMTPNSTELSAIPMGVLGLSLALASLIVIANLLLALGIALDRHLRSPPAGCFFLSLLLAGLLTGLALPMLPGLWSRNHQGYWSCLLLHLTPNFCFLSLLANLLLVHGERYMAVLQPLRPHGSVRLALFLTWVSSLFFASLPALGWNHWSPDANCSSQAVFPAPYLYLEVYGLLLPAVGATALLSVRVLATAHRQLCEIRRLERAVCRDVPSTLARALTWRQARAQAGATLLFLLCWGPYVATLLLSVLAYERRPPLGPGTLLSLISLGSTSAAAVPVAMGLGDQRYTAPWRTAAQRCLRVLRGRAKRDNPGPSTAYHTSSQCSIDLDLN
In short: as §1

Row | Structure (SMILES) | EC50 (hTGR5) [nM] | EC50 (mTGR5) [nM] | hTGR5 % trans (hTGR5) [%] | mTGR5 % trans (mTGR5) [%]
1 | COCCN1C(=O)CC(c2ccc(Cl)cc2)C(C(=O)OCc2ccc(-c3ccccc3)cc2)=C1C (stereo not drawn) [Example 108, (4-phenylphenyl)methyl 4-(4-chlorophenyl)-1-(2-methoxyethyl)-6-methyl-2-oxo-3,4-dihydropyridine-5-carboxylate] | 500 | 600 | – | –
2 | COCCN1C(=O)CC(c2ccc(Cl)cc2)C(C(=O)OCc2ccc(OCCCN(C)C)cc2)=C1C (stereo not drawn) [Example 116, [4-[3-(dimethylamino)propoxy]phenyl]methyl 4-(4-chlorophenyl)-1-(2-methoxyethyl)-6-methyl-2-oxo-3,4-dihydropyridine-5-carboxylate] | 1400 | 1600 | 76 | 82
3 | COCCN1C(=O)CC(c2ccc(-c3ccccc3)cc2)C(C(=O)OCc2ccccc2)=C1C (stereo not drawn) [Example 123, Benzyl 1-(2-methoxyethyl)-6-methyl-2-oxo-4-(4-phenylphenyl)-3,4-dihydropyridine-5-carboxylate] | 1400 | 2800 | 17 | 10
4 | COCCN1C(=O)CC(c2ccc(C#N)cc2)C(C(=O)OCc2ccccc2OC)=C1C (stereo not drawn) [Example 125, (2-methoxyphenyl)methyl 4-(4-cyanophenyl)-1-(2-methoxyethyl)-6-methyl-2-oxo-3,4-dihydropyridine-5-carboxylate] | 200 | 200 | 86 | 100
5 | COCCN1C(=O)CC(c2ccc(Cl)c(Cl)c2)C(C(=O)OCc2ccccc2OC)=C1C (stereo not drawn) [Example 127, (2-methoxyphenyl)methyl 4-(3,4-dichlorophenyl)-1-(2-methoxyethyl)-6-methyl-2-oxo-3,4-dihydropyridine-5-carboxylate] | 100 | 100 | 89 | 109
6 | COCCN1C(=O)CC(c2ccc(Cl)cc2Cl)C(C(=O)OCc2ccccc2OC)=C1C (stereo not drawn) [Example 129, (2-methoxyphenyl)methyl 4-(2,4-dichlorophenyl)-1-(2-methoxyethyl)-6-methyl-2-oxo-3,4-dihydropyridine-5-carboxylate] | 400 | 900 | 89 | 81
7 | CC1=C(C(=O)OCc2ccc(OCCS(=O)(=O)O)cc2)[C@H](c2ccc(Cl)cc2)CC(=O)N1C[C@H]1CCCO1.N [Example 144, Ammonium 2-[4-[[(4S)-4-(4-chlorophenyl)-6-methyl-2-oxo-1-[[(2R)-tetrahydrofuran-2-yl]methyl]-3,4-dihydropyridine-5-carbonyl]oxymethyl]phenoxy]ethanesulfonate] | 60 | 100 | 95 | 158
8 | COc1ccccc1COC(=O)C1=C(C)N(C[C@@H]2CCCO2)C(=O)C[C@@H]1c1ccc(Cl)nc1 [Example 162, (2-M ethoxyphenyl)-methyl-(4R)-4-(6-chloro-3-pyridyl)-6-methyl-2-oxo-1-[[(2S)-tetrahydrofuran-2-yl]methyl]-3,4-dihydropyridine-5-carboxylate] | 320 | – | 92 | 86
9 | CC1=C(C(=O)OCc2ccc(OCCCCS(=O)(=O)O)cc2)[C@H](c2ccc(Cl)cc2)CC(=O)N1C[C@H]1CCCO1 [Example 169, Ammonium; 4-[4-[[(4S)-4-(4-chlorophenyl)-6-methyl-2-oxo-1-[[(2R)-tetrahydrofuran-2-yl]methyl]-3,4-dihydropyridine-5-carbonyl]oxymethyl]phenoxy]butane-1-sulfonate] | 30 | 9 | 103 | 103

The remaining molecules from weak to strong by EC50 (hTGR5), led by results:

Row | EC50 (hTGR5) [nM] | EC50 (mTGR5) [nM] | hTGR5 % trans (hTGR5) [%] | mTGR5 % trans (mTGR5) [%] | Structure (SMILES)
10 | 8600 | 4900 | 72 | 83 | COCCN1C(=O)CC(c2ccncc2)C(C(=O)OCc2ccccc2OC)=C1C (stereo not drawn) [Example 133, (2-methoxyphenyl)methyl 1-(2-methoxyethyl)-6-methyl-2-oxo-4-(4-pyridyl)-3,4-dihydropyridine-5-carboxylate]
11 | 5200 | 3200 | 20 | 46 | COCCN1C(=O)CC(c2ccc(Cl)cc2)C(C(=O)OCC(=O)c2ccccc2)=C1C (stereo not drawn) [Example 112, Phenacyl 4-(4-chlorophenyl)-1-(2-methoxyethyl)-6-methyl-2-oxo-3,4-dihydropyridine-5-carboxylate]
12 | 2300 | 1600 | 50 | 42 | COCCN1C(=O)CC(c2ccc(Cl)cc2)C(C(=O)OCCc2ccccc2)=C1C (stereo not drawn) [Example 110, 2-phenylethyl 4-(4-chlorophenyl)-1-(2-methoxyethyl)-6-methyl-2-oxo-3,4-dihydropyridine-5-carboxylate]
13 | 1600 | 4200 | 74 | 77 | COCCN1C(=O)CC(c2ccc(Cl)cc2)C(C(=O)OCc2ccc(OCCC[N+](C)(C)C)cc2)=C1C.[I-] (stereo not drawn) [Example 117, 3-[4-[[4-(4-chlorophenyl)-1-(2-methoxyethyl)-6-methyl-2-oxo-3,4-dihydropyridine-5-carbonyl]oxymethyl]phenoxy]propyl-trimethyl-ammonium; iodide]
14 | 1100 | 1200 | 51 | 49 | CCCC1CC(=O)N(CCOC)C(C)=C1C(=O)OCc1ccccc1OC (stereo not drawn) [Example 121, (2-methoxyphenyl)methyl 1-(2-methoxyethyl)-6-methyl-2-oxo-4-propyl-3,4-dihydropyridine-5-carboxylate]
15 | 380 | 1110 | 70 | 36 | COc1ccccc1[C@H](C)OC(=O)C1=C(C)N(C[C@H]2CCCO2)C(=O)C[C@H]1c1ccc(Cl)cc1 [Example 138, 1-(2-methoxyphenyl)ethyl (4S)-4-(4-chlorophenyl)-6-methyl-2-oxo-1-[[(2R)-tetrahydrofuran-2-yl]methyl]-3,4-dihydropyridine-5-carboxylate]
16 | 160 | 100 | 103 | 113 | CC1=C(C(=O)OCc2ccc(OCCCS(=O)(=O)O)cc2)[C@H](c2ccc(Cl)nc2)CC(=O)N1C[C@H]1CCCO1.N [Example 166, Ammonium,3-[4-[[(4S)-4-(6-chloro-3-pyridyl)-6-methyl-2-oxo-1-[[(2R)-tetrahydrofuran-2-yl]methyl]-3,4-dihydropyridine-5-carbonyl]oxymethyl]phenoxy]propane-1-sulfonate]
17 | 130 | – | 99 | 71 | COc1ccccc1COC(=O)C1=C(C)N(C[C@H]2CCCO2)C(=O)C[C@@H]1c1ccc(Cl)nc1 [Example 165, (2-M ethoxyphenyl)methyl-(4R)-4-(6-chloro-3-pyridyl)-6-methyl-2-oxo-1-[[(2R)-tetrahydrofuran-2-yl]methyl]-3,4-dihydropyridine-5-carboxylate]
18 | 100 | 100 | 85 | 83 | COCCOc1ccc(COC(=O)C2=C(C)N(CCOC)C(=O)CC2c2ccc(Cl)cc2)cc1 (stereo not drawn) [Example 119, [4-(2-methoxyethoxy)phenyl]methyl 4-(4-chlorophenyl)-1-(2-methoxyethyl)-6-methyl-2-oxo-3,4-dihydropyridine-5-carboxylate]
19 | 65 | 26 | 106 | 120 | CC1=C(C(=O)OCc2ccc(OCCCS(=O)(=O)O)cc2)[C@H](c2ccc(Cl)cc2)CC(=O)N1C[C@H]1CCCO1.N [Example 168, Ammonium,3-[4-[[(4S)-4-(4-chlorophenyl)-6-methyl-2-oxo-1-[[(2R)-tetrahydrofuran-2-yl]methyl]-3,4-dihydropyridine-5-carbonyl]oxymethyl]phenoxy]propane-1-sulfonate]
20 | 17 | – | 105 | 102 | COc1ccccc1COC(=O)C1=C(C)N(C[C@@H]2CCCO2)C(=O)C[C@H]1c1ccc(Cl)nc1 [Example 163, (2-Methoxyphenyl)methyl-(4S)-4-(6-chloro-3-pyridyl)-6-methyl-2-oxo-1-[[(2S)-tetra hydrofuran-2-yl]methyl]-3,4-dihydropyridine-5-carboxylate]
